Measured values published in patent publication US6803046B2, “Sincalide formulations” (Bracco International B.V., priority 2002, dated 2004).

What was measured:
[1] = system: gallbladder; details: patients pretreated before hepatobiliary imaging; typical; cited from earlier work
[2] = Metal ion oxidative effects on sincalide with/without DTPA (RP-HPLC); format: physicochemical; details: analyzed within 8 hours
Protocol: Experiments were performed to determine whether these residues, as present in sincalide, were susceptible to oxidation by free metals. These experiments also examined the role of DTPA as a formulation excipient to chelate metals and thereby inhibit sincalide oxidation. FIGS. 2-4 show the three oxidized forms of sincalide containing either mono- or disulfoxides.
The experimental formulation (25 mL) solution with (+) and without (−) DTPA were individually spiked with nine metal ions, as summarized in Table 7.
Copper and manganese, in the absence of DTPA, have the greatest oxidative effect on the methionine residues of sincalide resulting in combined weight percentages of Met 3 and Met 6 monosulfoxides (vs sincalide) of 85.5 and 128.9, respectively. In addition to the presence of sincalide Met 3 and Met 6 monosulfoxides (tR≈14.8 min. {doublet} and tR≈18 min.), formation of sincalide disulfoxide (tR≈6.5 min.) was also noted in the cases of copper and manganese, but not with the other metals.

[3] = Effect of surfactants on sincalide recovery (RP-HPLC); format: physicochemical; details: for sincalide recoveries: formulations containing trace levels (2.5-7.5 μg/mL) of the surfactant
From the text: During the preliminary developmental studies of a new formulation that consisted of bulking agent/tonicity adjuster, buffer, salt, chelator, and sincalide, it was observed by HPLC analysis that the recovery of the active pharmaceutical ingredient, sincalide, in the bulk solution was sensitive to standing open to air. […] Although to some extent, this sincalide decrease can be accounted for by an increase in the presence of sincalide mono- and disulfoxide degradants, these represent only a very minor percentage of the decreases noted. Thus the decrease in recovery is thought to be attributed to either adsorption/denaturing or air/liquid interface effects. To minimize sincalide degradation associated with surface adsorption, surfactants are added as formulation excipients in bulk and lyophilized formulations of sincalide.
Sincalide formulations consisting of a bulking agent/tonicity adjuster (D-mannitol), buffer (mono- and dibasic potassium phosphate), salt (sodium/potassium chloride) for tonicity, chelator (pentetic acid), and active ingredient (sincalide) were prepared using varying concentrations of the nonionic surfactant, polysorbate 80 (TWEEN® 80). Bulk solution and reconstituted lyophilized samples were either stoppered immediately or left unstoppered for 17 hours, and were assayed for sincalide recovery by reversed-phase gradient elution HPLC at 215 nm. […]
An additional experiment was performed to confirm the effect of the concentration of TWEEN® 20 in terms of sincalide recovery in both air exposed and sealed bulk formulation. Sincalide recovery, determined for bulk formulation (75.0 mg/mL D-mannitol, 6.0 mg/mL KCl, 3.25 mg/mL KH2PO4, 1.0 mg/mL DTPA, 0.0025 mg/mL sincalide) containing varying trace levels of TWEEN® 20 stored in open or closed vials using reversed-phase gradient elution HPLC, is shown in Table 10. […]

Row | Compound | time to gallbladder contraction after sincalide injection [1] [min] | combined percentages of Met 3 and Met 6 monosulfoxides (vs sincalide) ([2]; experimental formulation without DTPA spiked with copper (0.63 mM Cu2+)) [%] | combined percentages of Met 3 and Met 6 monosulfoxides (vs sincalide) ([2]; experimental formulation without DTPA spiked with manganese (0.18 mM Mn2+)) [%] | foaming in the reconstituted product upon vigorous stirring ([3]; 2-mL filled vials, TWEEN 20 concentration of 5 μg/mL) | sincalide recoveries [3]
1 | CSCC[C@H](NC(=O)[C@H](Cc1ccc(OS(=O)(=O)O)cc1)NC(=O)[C@@H](N)CC(=O)O)C(=O)NCC(=O)N[C@@H](Cc1c[nH]c2ccccc12)C(=O)N[C@@H](CCSC)C(=O)N[C@@H](CC(=O)O)C(=O)N[C@@H](Cc1ccccc1)C(N)=O [Sincalide, 1-De(5-oxo-L-glutamine-5-L-proline)-2-de-L-methioninecaerulein] | ≤ 15 | 85.5 | 128.9 |  | 
2 | polyoxyethylene sorbitan monolaurate [TWEEN ® 20] |  |  |  | slight foaming | 98-102%
3 | polysorbate 80 [TWEEN ® 80] |  |  |  |  | 95-98%
